{"source": "paper PMC6471062", "about": "“Suppression of the Ubiquitin Pathway by Small Molecule Binding to Ubiquitin Enhances Doxorubicin Sensitivity of the Cancer Cells” (Molecules, 2019)", "assay_type_in_all_cases": "cell-based", "key": {"H1299 cells [1]": {"test_system": "H1299 cells", "assay": "Total ubiquitination state of non-Dox-treated cells (immunoblot, immunofluorescence)", "settings": "H1299, 1.0 and 10 μM CR, 12 h", "experimental": "Cells were seeded in the SPL 4 wells cell culture chamber slide 24 h before experiment. Cells were treated with an indicated compound for an indicated time. The cells were fixed with 4% formaldehyde for 15 min followed by three times of PBS washing. Cells were permeabilized by incubation with PBS containing 0.5% Triton-X100 and 5% FBS for 30 min, and then blocked with blocking buffer (PBS, 5% FBS, 0.3% Triton X-100) for 1.5 h. Subsequently, cells were incubated with primary antibody at 1/200 dilution in blocking buffer overnight and then washed with blocking buffer five times (5 min each) before incubation with fluorescence-conjugated secondary antibody at 1/200 dilution in blocking buffer for 1 h. Cells were then washed with blocking buffer five times (5 min each) before incubation with DAPI for 10 min and three times washing with PBS. Slides were covered with the coverslip in the presence of mounting solution (cat # 475904, MOWIOL) and subjected to confocal imaging. Images acquired in confocal imaging were subjected to fluorescence intensity analysis using ImageJ [55]. Fluorescence signal representing a particular ubiquitin chain level was analyzed and normalized with the intensity of DAPI. Data were analyzed using GraphPad Prism version 6.0 for Windows with two tail t-test for statistical data analysis. page 6: Figure S6. Effect of CR on the ubiquitination state of none-treated cells. […]"}, "H1299 cells [2]": {"test_system": "H1299 cells", "assay": "Cytotoxicity, cell viability assay", "experimental": "(§1) Cell viability assays were performed as described previously. For the caspase assays, the media were removed, and cells were lysed in 200 µL lysis buffer containing 50 µL Caspase Glo 3/7 solution and incubated for 15 min. Results were observed by measuring the luminescence signal using KOMM-Nr (Berthold Technologies, Bad Wildbad, Germany) and normalized with the total protein concentration measured by the Bradford assay. Data were analyzed using GraphPad Prism version 6.0 for Windows with two tail t-test for statistical data analysis […]\nFigure S7. Cytotoxicity of CR to cancer cells. H1299 cells were cultured in 96 -well plates. CR was added to final concentrations of 0.0 – 50.0 µM, and the cells were incubated for 24 h followed by cell viability assay. All error bars represent the standard deviation from at least 4 independent experiments. Statistical comparisons between groups were determined by Student’s t -test. If p -values are less than 0.05, they are statistically significant . NS, not […]\n(1 picture or pasted object on this page, not shown here)"}, "H1299 cells [3]": {"test_system": "H1299 cells", "assay": "Dox-induced K48- and K63-polyubiquitination in cells (immunofluorescence staining, Western blot)", "settings": "H1299, 5 or 10 μM CR 12 h pretreatment, then 5 μM Dox 12 h", "experimental": "Figure 6 CR inhibits Dox-induced ubiquitination in the cells. (a) Immunofluorescence staining of H1299 cells treated with or without 5 (+) and 10 (++) μM CR for 12 h followed by addition of Dox to a final concentration of 5 μM, with incubation for 12 h. The cells were subjected to immunofluorescence staining using the antibodies against K48 (αK48) and K63 polyubiquitins (αK63). (b) K48 or K63 polyubiquitin level in Figure 6a was quantified by fluorescence signal. At least seven random regions acquired in confocal images were sampled and normalized against DAPI intensity for quantification. (c) Immunoblots of samples in Figure 6a using the indicated antibodies. […] Statistical significance was calculated by the Student’s t-test (* p < 0.05, ** p < 0.01, *** p < 0.001).\nCells were seeded in the SPL 4 wells cell culture chamber slide 24 h before experiment. […] Subsequently, cells were incubated with primary antibody at 1/200 dilution in blocking buffer overnight and then washed with blocking buffer five times (5 min each) before incubation with fluorescence-conjugated secondary antibody at 1/200 dilution in blocking buffer for 1 h. […] Images acquired in confocal imaging were subjected to fluorescence intensity analysis using ImageJ [55]. Fluorescence signal representing a particular ubiquitin chain level was analyzed and normalized with the intensity of DAPI. […]"}, "H1299 cells [4]": {"test_system": "H1299 cells", "assay": "Dox-induced cell death, colorimetric cell viability, H1299", "settings": "10 µM CR or 5 µM NSC697923 12 h, then Dox 1.25–5.0 μM 12 h", "experimental": "(§2) Figure 7 CR enhances Dox sensitivity of cancer cells. (a,b) Enhancement of Dox-induced apoptosis of cancer cells by CR treatment. Dox–induced apoptosis of H1299 (a) and HCT116 (b) was quantified by colorimetric cell viability after treating 10 µM CR for 12 h followed by 12h treatment of Dox (0.0–5.0 µM). […] Caspase activity was quantified by luminogenic caspase activity assay. […] All error bars represent the standard deviation from at least four independent experiments. Statistical significance was calculated by the Student’s t-test (** p < 0.01, *** p < 0.001).\nas §1\n(§3) Figure S8. NSC697923 enhances Dox sensitivity of cancer cells. (a, b) Effect of NSC697923 to cancer cells’ viability in Dox treatment . Dox–induced cell death of H1299 ( a) and HCT116 ( b) was quantified by colorimetric cell viability assay after treating 5 µM NSC697923 for 12 h followed by 12h treatment of Dox (0.0 […]\n(§4) NSC697923. Caspase activity was quantified by luminogenic caspase activity assay. All error bars represent the standard deviation from at least 4 independent experiments. *, P<0.05; **, P<0.01; ***, P<0.001."}, "HCT116 cells [5]": {"test_system": "HCT116 cells", "assay": "Dox-induced cell death, colorimetric cell viability, HCT116", "settings": "10 µM CR or 5 µM NSC697923 12 h, then Dox 1.25–5.0 μM 12 h", "experimental": "as §2\nas §1, with “assay.” for “assay. Data were analyzed using GraphPad Prism version 6.0 for Windows with two tail t-test for statistical data analysis”\nas §3, §4"}, "HCT116 cells [6]": {"test_system": "HCT116 cells", "assay": "Luminogenic caspase activity assay (Caspase Glo 3/7), HCT116", "settings": "10 µM CR or 5 µM NSC697923 with Dox", "experimental": "as §2\nas §1, with “assay.” for “assay. Data were analyzed using GraphPad Prism version 6.0 for Windows with two tail t-test for statistical data analysis”\nas §3\nNSC697923. Caspase activity was quantified by luminogenic caspase activity assay. […]"}}}
{"molecule": "Nc1c(/N=N/c2ccc(-c3ccc(/N=N/c4cc(S(=O)(=O)O)c5ccccc5c4N)cc3)cc2)cc(S(=O)(=O)O)c2ccccc12", "note": "[CR, Congo red]", "values": [{"measurement": "Effect on total ubiquitination of normal (non-Dox-treated) cells", "setting": "H1299 cells [1]", "value": "slight accumulation of the polyubiquitin chains"}, {"measurement": "Effect on cell viability, compound alone", "setting": "H1299 cells [2]; H1299, CR 0.0–50.0 µM, 24 h", "value": "does not affect"}, {"measurement": "None-toxicity concentration", "setting": "H1299 cells [2]; determined by cytotoxicity assays", "value": 10, "unit": "µM"}, {"measurement": "Effect on Dox-triggered K48 and K63 ubiquitination", "setting": "H1299 cells [3]", "value": "suppressed Dox-triggered ubiquitination in both K48 and K63"}, {"measurement": "Effect on Dox-induced cell death, H1299", "setting": "H1299 cells [4]", "value": "significantly enhanced Dox-induced cell death"}, {"measurement": "Effect on Dox-induced cell death, HCT116", "setting": "HCT116 cells [5]", "value": "significantly enhanced Dox-induced cell death"}, {"measurement": "Effect on caspase activity of Dox-treated HCT116 cells", "setting": "HCT116 cells [6]", "value": "Enhanced caspase activity"}]}
